Measured values reported in patent publication US20220089598A1, “INHIBITORS OF HUMAN IMMUNODEFICIENCY VIRUS REPLICATION” (VIIV HEALTHCARE UK (No. 5) LIMITED, priority 2018, published 2022).
Like-named read-outs stand apart in the source and are kept apart here.

Assays:
Format in all cases: cell-based
uninfected MT2 cells = assay: Compound cytotoxicity, XTT-based colorimetric assay; conditions: day 4, XTT assay
How it was run: (§1)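 Run under the antiviral-assay protocol but without virus. Viability was read on day 4 and CC50 values were derived from the readout.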

[1] = tested on: recombinant NL4-3 virus (Renilla luciferase) in MT-2 cells; assay: HIV cell culture assay (antiviral activity, luciferase readout)
How it was run: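 Nef-deleted NL4-3 carrying Renilla luciferase, made by transfecting 293T cells, infects MT-2 cells for 4-5 days with serial compound dilutions present. Luciferase is read with a live-cell substrate. EC50 comes from the exponential median-effect equation Fa=1/[1+(ED50/drug conc.)m].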

[2] = Compound cytotoxicity, XTT-based colorimetric assay; conditions: human; uninfected MT2 cells, day 4, XTT assay
How it was run: as §1

`CS(=O)(=O)Nc1nn(CC(F)F)c2c(-n3c(C(Cc4cc(F)cc(F)c4)NC(=O)Cn4nc(C(F)(F)F)c5c4C(F)(F)C4CC54)nc4nc(-c5ccccc5F)ccc4c3=O)ccc(Cl)c12` [Example 32, N—((S)-1-((3P)-3-(4-chloro-1-(2,2-difluoroethyl)-3-(methylsulfonamido)-1H-indazol-7-yl)-7-(2-fluorophenyl)-4-oxo-3,4-dihydropyrido[2,3-d]pyrimidin-2-yl)-2-(3,5-difluorophenyl)ethyl)-2-((3bS,4aR)-5,5-difluoro-3-(trifluoromethyl)-3b,4,4a,5-tetrahydro-1H-cyclopropa[3,4]cyclopenta[1,2-c]pyrazol-1-yl)acetamide] gave a CC50 (uninfected MT2 cells) of over 500 nM and an EC50 ([1]; MT-2 cells infected for 4-5 days with recombinant NL4-3 virus, luciferase activity, read-out: EC50) of 0.077 nM.

Work on `O=C(Cn1ccc(C2CC2)n1)N[C@@H](Cc1cc(F)cc(F)c1)c1nc2nc(-c3ccccc3F)ccc2c(=O)n1-c1ccc(Cl)c2c(NS(=O)(=O)C3CC3)nn(CC(F)F)c12` (atropisomer, axis not shown; (P)) [Example 35, (S)—N-(1-((3P)-3-(4-chloro-3-(cyclopropanesulfonamido)-1-(2,2-difluoroethyl)-1H-indazol-7-yl)-7-(2-fluorophenyl)-4-oxo-3,4-dihydropyrido[2,3-d]pyrimidin-2-yl)-2-(3,5-difluorophenyl)ethyl)-2-(3-cyclopropyl-1H-pyrazol-1-yl)acetamide] yielded a CC50 at 4 day [2] of over 500 nM and an EC50 ([1]; Renilla, NL43) of 0.2 nM.

`CS(=O)(=O)Nc1nn(CC(F)F)c2c(-n3c([C@H](Cc4cc(F)cc(F)c4)NC(=O)Cn4nc(C(F)F)c5c4C(F)(F)[C@@H]4C[C@H]54)nc4nc(-c5ccccc5F)ccc4c3=O)ccc(Cl)c12` (atropisomer, axis not shown; (P)) [Example 10, N—((S)-1-((3P)-3-(4-chloro-1-(2,2-difluoroethyl)-3-(methylsulfonamido)-1H-indazol-7-yl)-7-(2-fluorophenyl)-4-oxo-3,4-dihydropyrido[2,3-d]pyrimidin-2-yl)-2-(3,5-difluorophenyl)ethyl)-2-((3bS,4aR)-3-(difluoromethyl)-5,5-difluoro-3b,4,4a,5-tetrahydro-1H-cyclopropa[3,4]cyclopenta[1,2-c]pyrazol-1-yl)acetamide] showed a CC50 at 4 day [2] of over 100 nM and an EC50 ([1]; Renilla, NL43) of 0.097 nM.

`CS(=O)(=O)Nc1nn(CC(F)(F)F)c2c(-n3c([C@H](Cc4cc(F)cc(F)c4)NC(=O)Cn4nc(C(F)F)c5c4C(F)(F)[C@@H]4C[C@H]54)nc4nc(-c5ccccc5F)ccc4c3=O)ccc(Cl)c12` (atropisomer, axis not shown; (P)) [Example 27, N—((S)-1-((3P)-3-(4-chloro-3-(methylsulfonamido)-1-(2,2,2-trifluoroethyl)-1H-indazol-7-yl)-7-(2-fluorophenyl)-4-oxo-3,4-dihydropyrido[2,3-d]pyrimidin-2-yl)-2-(3,5-difluorophenyl)ethyl)-2-((3bS,4aR)-3-(difluoromethyl)-5,5-difluoro-3b,4,4a,5-tetrahydro-1H-cyclopropa[3,4]cyclopenta[1,2-c]pyrazol-1-yl)acetamide] showed a CC50 at 4 day [2] of over 500 nM and an EC50 ([1]; Renilla, NL43) of 0.088 nM.
